One data set concerns CCAT1. Put plainly: fluorescence of CCAT1 FIT-PNA with RNA. To be noted: [RNA]=1.5 μM and [FIT-PNA]=1 μM. From the text: Methylating the N-7 position of Guanosine base of a PNA monomer (G+ PNA monomer) results in an improvement in the hybridization to complementary DNA whilst avoiding PNA:PNA inter- and intra-duplex formation. As enhancement of FIT-PNA fluorescence depends on the ratio between ss/ds forms (PNA/PNA:RNA), lowering the background fluorescence of ssPNA should result in greater sensitivity (i.e. increased fluorescence enhancement). In the ss form, the FIT-PNA has low background fluorescence due to […] interactions between the aromatic BisQ and adjacent aromatic PNA monomers (especially purines: G and A). As BisQ has a delocalized positive charge (from nitrogen to nitrogen), the introduction of an adjacent positive charge on G or A causes electrostatic repulsion between BisQ and G+/A+ resulting in reduced background fluorescence. […] Data points to both a decrease in signal background of ssFIT-PNA and to an increase in fluorescence in duplex form (FIT-PNA:RNA) in comparison to non-modified CCAT1 FIT-PNA (FIG. 7). […]
In some embodiments, the modified or charged bases, G^+ and A^+, may be provided with a cp group positioned in their vicinity or as a cpG^+or cpA^+ monomer, in similarity to cpBisQ (Scheme 4). […] Data points to an increase in fluorescence in duplex form (FIT-PNA:RNA) in comparison to non-modified CCAT1 FIT-PNA as well as G+ and cpG modified CCAT1 FIT-PNA sequences (FIG. 8). […]

Data set [1] deals with BRAF V600E point mutation. Put plainly: fluorescence spectra of BRAF FIT-PNA with fully matched RNA (mutant) and mis-match RNA (WT). To be noted: 1 μM PNA. The source says: The data points to the added value of introducing the PEG8 linker. Clearly, the addition of the PEG8 linker improves the signal for fully matched RNA without losing the discrimination for the SNP. The addition of cpPNAs on both sides of BisQ (Table 2) results in an increased fluorescence in signal with mutant RNA (FIG. 6), however, the signal for WT RNA (with mismatch) also increases. This leads to some loss of discrimination for this SNP.
FIGS. 5A-B depict the added value of the PEG8 linker. Fluorescence spectra of CLIP6 FIT-PNA (5A, right) and, CLIP6-PEG8-FIT-PNA (5B, left) with fully matched RNA (mutant) and mis-match RNA (WT).
FIG. 6 depicts the increase in fluorescence for BRAF FIT-PNA substituted with cp. Fluorescence spectra of CLIP6-PEG8-cpFIT-PNA (1 μM) with fully matched RNA (mutant, (1.5 μM)) and mis-match RNA (WT, (1.5 μM)). A two-fold increase in fluorescence is obtained in comparison to the non-modified FIT-PNA (CLIP6-PEG8-FIT-PNA). An 18-fold enhancement in fluorescence is observed for CLIP6-PEG8-cpFIT-PNA in duplex form (with complementary RNA) in comparison to single strand.

For data set [2], the system named is complementary RNA. Description: Tm of RNA:PNA duplexes (duplex stability). Format: binding. On the set-up: ΔTm: unit not given here. The settings on record: for Tm: RNA:PNA duplex; for ΔTm: vs unmodified control FIT-PNA of the set (1 or 5). On the procedure: In addition, the enhancement upon duplex formation with complementary RNA observed for these FIT-PNAs (4 and 7) was quite dramatic; 47-fold for FIT-PNA 7 and 46-fold for FIT-PNA 4 (FIG. 1B). The effect of cpPNA monomers to duplex stability was assessed by measuring Tm for all RNA:PNA duplexes (Table 2). The stabilizing effect was smaller for FIT-PNA in comparison to that reported for cpPNA. It is believed that this is due to the close proximity of the modified bases to the bulkier BisQ surrogate base in comparison to natural bases. For all measurements an additional transition at 60° C. was observed.

Data set [3] deals with complementary RNA. Description: photophysical properties of duplex cpFIT-PNAs with complementary RNA (fluorescence spectrometry). Type of data set: physicochemical. To be noted: for BR (brightness) / εmax / λmax, abs / Φ (quantum yield, QY): duplex with complementary RNA; for Φ (quantum yield, QY): relative to Cresyl Violet, 3 μM FIT-PNA in PBS pH 7; for I/I0: fluorescence enhancement, duplex with complementary RNA vs single strand; for enhancement upon duplex formation with complementary RNA: [FIT-PNA]=3 μM, [RNA]=4.5 μM. The protocol: (A) set 1 showing fluorescence of FIT-PNA:RNA duplex for FIT-PNAs 1-4, (B) set 2 showing fluorescence of FIT-PNA:RNA duplex for FIT-PNAs 5-7 and, (C) enhanced fluorescence of bis-cpFIT-PNAs (4 and 7) after RNA hybridization. [FIT-PNA]=[cpFIT-PNA]=3 μM, [RNA]=4.5 μM.
Fluorescence spectra were recorded by using a Jasco FT-6500 spectrometer. Measurements were carried out in fluorescence quartz cuvettes (10 mm) at a 3 μM concentration of FIT-PNA in a PBS buffered solution (100 mM NaCl, 10 mM NaH2PO4, pH 7). Quantum yields were determined relative to Cresyl Violet in PBS^3. PNAs were hybridized to complementary RNA using a 1:1.5 mixture of PNA:RNA at 37° C. for 1-2 hr. Samples were excited at 575 nm and emission spectra were recorded at 585-800 nm.

Data set [4] relates to complementary RNA. Put plainly: limit of detection (LOD) measurements, plate reader. To be noted: overnight incubation at RT. On the procedure: As used herein, the term “amount” made in reference to presence of an SOI in a sample, refers to a quantity of the SOI that is sufficient to interact with a conjugate of the invention to provide a measurable signal. This amount is in the low nM range as shown for FIT-PNA 7 (Table 2).
(§1) Fluorescence end points were recorded by using a Cytation 3 plate reader. Measurements were carried out in Greiner 96 well black plates with flat bottom, at 0.5 μM concentration in a PBS buffered solution (100 mM NaCl, 10 mM NaH2PO4, pH 7). FIT-PNAs were hybridized to complementary RNA using a 1:1.5 mixture of PNA:RNA at 37° C. for 1-2 hr or by allowing overnight incubation at RT (for limit of detection (LOD) measurements). Samples were excited at 575 nm and measured at 615 nm.

Data set [5] concerns 11-mer RNAs with all three possible mismatches. Description: mismatch sensitivity of cpFIT-PNAs, plate reader. Type of data set: binding. The protocol: Mismatch sensitivity was evaluated for single and doubly modified cpFIT-PNAs. Mismatch sensitivity for mono-substituted cpPNAs (cpFIT-PNAs 2, 3, and 6) are presented in FIGS. 3A-B. Double substituted cpFIT PNAs 4 and 7 were compared to FIT-PNA controls (1 and 5) and are presented in FIGS. 2A-B. 11-mer RNAs with all three possible mismatches were introduced either at 3′ (to the left of BisQ) or 5′ (to the right of BisQ) positions opposite to the nearby base to BisQ. One clear observation is that cpFIT-PNAs have significant selectivity for pyrimidine-pyrimidine mismatches (CC, TU, TC, CU where underlined base refers to PNA base) in comparison to FIT-PNA controls with the exception of the CU mismatch for cpFIT-PNA 4. For cpFIT-PNA 7, TC and TU mismatches are discriminated by a factor of 7.5 and 13.9-fold (vs. full matched RNA), respectively. This is around a 3 to 5-fold increase with respect to non-modified FIT-PNA 5.
(A) double cpFIT-PNA 4 compared to FIT-PNA 1 and (B) double cpFIT-PNA 7 compared to FIT-PNA 5. FIT-PNAs were annealed to all possible 11-mer RNAs and measured on a plate reader (λex=575 λnm, Em=619 nm, n=3). [FIT-PNA]=[cpFIT-PNA]=0.5 μM, [RNA]=0.75 μM.
FIGS. 3A-B provide mismatch sensitivity of single substituted cpFIT-PNAs. (A) cpFIT-PNA 2 and 3 and (B) cpFIT-PNA 6. FIT-PNAs (0.5 μM) were annealed to all possible 11-mer RNAs (0.75 μM) and measured on a plate reader (λex=575 nm, λem=619 nm, n=3).
as §1

As usually defined, the Tm is the temperature at the midpoint of the melting transition.

Several values for one entry are separate records, joined by “and”; a condition that tells them apart may be missing. Equal entries are not always repeated.

In turn, “CCAACCT-BisQ-G^+TAAGTG-dK4 [G^+ modified CCAT1 FIT-PNA]” returned an increase in fluorescence with CCAT1 of 7 fold.

In turn, “CCAACCT-BisQ-cpG^+TAAGTG-dK4 [cpG^+ modified CCAT1 FIT-PNA]” gave an increase in fluorescence in the data set with CCAT1 of 10 fold.

As for “GATTcpT-BisQ-TCTGTAGCTAC-PEG8-CLIP6 [CLIP6-PEG8-cpFIT-PNA]”, the “enhancement in fluorescence in duplex form (with complementary RNA) in comparison to single strand” value in data set [1] (1.5 μM RNA) was determined as 18 fold. Moreover, the “increase in fluorescence in comparison to the non-modified FIT-PNA (CLIP6-PEG8-FIT-PNA)” value in data set [1] (1.5 μM fully matched RNA (mutant)) is recorded as “two-fold”.

In the case of “^3′(4)KD-ATA-C-BisQ-TACAAC-^5′ [FIT-PNA 1, reference compound]”, the Tm with complementary RNA [2] was determined as 50.2 °C. Moreover, in the data set on complementary RNA [3], the “BR (brightness)” value was 15 mM⁻¹ cm⁻¹ and 15.0 mM⁻¹ cm⁻¹; the εmax was 83.2 mM⁻¹ cm⁻¹; the “λmax, abs” value came to 588 nm; the “Φ (quantum yield, QY)” value is reported as 0.18. In addition, the I/I0 in the data set on complementary RNA [3] is reported as 12.

For “^3′(4)KD-ATA-C-BisQ-cpT-ACAAC-5′ [FIT-PNA 2]”, in the data set on complementary RNA [2], the Tm came out at 53.7 °C and the ΔTm entry is listed as “(+3.5)”. In the data set with complementary RNA [3], the “BR (brightness)” value is 16.4 mM⁻¹ cm⁻¹; the εmax worked out at 91.0 mM⁻¹ cm⁻¹; the “λmax, abs” value was determined as 590 nm; the “Φ (quantum yield, QY)” value was determined as 0.18. Moreover, in the data set on complementary RNA [3], the I/I0 is reported as 15.

On to “^3′(4)KD-ATA-cpC-BisQ-cpT-ACAAC-5′ [FIT-PNA 4]”, for which, in the data set with complementary RNA [2], the Tm is 54.7 °C and the ΔTm result is “(+4.5)”. For the same substance, in the data set with complementary RNA [3], the “enhancement upon duplex formation with complementary RNA” value came out at 46 fold; the “BR (brightness)” value was 28.3 mM⁻¹ cm⁻¹; the εmax turned out to be 85.8 mM⁻¹ cm⁻¹; the “λmax, abs” value worked out at 590 nm. Further, in the data set on complementary RNA [3], the “Φ (quantum yield, QY)” value was 0.33 and the I/I0 amounted to 46.

Turning to “^3′(4)KD-ATA-cpT-BisQ-T-ACAAC-^5′ [FIT-PNA 3]”, in the data set on complementary RNA [2], the Tm turned out to be 53.7 °C and the ΔTm entry is listed as “(+3.5)”. Further, in the data set with complementary RNA [3], the “BR (brightness)” value was determined as 25.7 mM⁻¹ cm⁻¹; the εmax amounted to 95.2 mM⁻¹ cm⁻¹; the “λmax, abs” value is reported as 589 nm; the “Φ (quantum yield, QY)” value came out at 0.27. In the data set on complementary RNA [3], the I/I0 was 12.

On to “^3′(4)KD-ATACA-T-BisQ-C-AAC-^5′ [FIT-PNA 5, reference compound]”, for which, in the data set with complementary RNA [2], the Tm came out at 51.8 °C. In the data set with complementary RNA [3], the “BR (brightness)” value amounted to 16.5 mM⁻¹ cm⁻¹; the εmax turned out to be 82.3 mM⁻¹ cm⁻¹; the “λmax, abs” value was 587 nm; the “Φ (quantum yield, QY)” value is 0.20. The I/I0 with complementary RNA [3] stood at 24.

Turning to “^3′(4)KD-ATACA-cpT-BisQ-C-AAC-^5′ [FIT-PNA 6]”, in the data set on complementary RNA [2], the Tm is 53 °C and the ΔTm result was “(+1.2)”. Also, in the data set with complementary RNA [3], the “BR (brightness)” value was found to be 29.1 mM⁻¹ cm⁻¹; the εmax was 85.7 mM⁻¹ cm⁻¹; the “λmax, abs” value is reported as 586 nm; the “Φ (quantum yield, QY)” value is recorded as 0.34. In addition, in the data set on complementary RNA [3], the I/I0 is recorded as 46.

“^3′(4)KD-ATACA-cpT-BisQ-cpC-AAC-^5′ [FIT-PNA 7]”: in the data set with complementary RNA [2], the Tm amounted to 52.9 °C and the ΔTm entry was “(+1.1)”. For the same substance, the “amount of SOI sufficient to provide a measurable signal” value in the data set on complementary RNA [4] is given as “low nM range”. For the same substance, in data set [5], the “increase in TC/TU mismatch discrimination with respect to non-modified FIT-PNA 5” value lay within 3 to 5 fold. Also, in data set [5] (0.5 μM FIT-PNA, 0.75 μM RNA), the “TC mismatch discrimination vs. full matched RNA” value came to 7.5 fold and the “TU mismatch discrimination vs. full matched RNA” value stood at 13.9 fold. Besides, in the data set with complementary RNA [3], the “enhancement upon duplex formation with complementary RNA” value worked out at 47 fold; the “BR (brightness)” value turned out to be 35.3 mM⁻¹ cm⁻¹; the εmax worked out at 90.6 mM⁻¹ cm⁻¹; the “λmax, abs” value is on record as 586 nm. Also, in the data set on complementary RNA [3], the “Φ (quantum yield, QY)” value is listed as 0.39 and the I/I0 worked out at 47.

The record behind these values is patent publication US20240010685A1, “RNA SENSORS AND USES THEREOF” (YISSUM RESEARCH DEVELOPMENT COMPANY OF THE HEBREW …, priority 2020, published 2024).
